In US8778939B2, “Compounds” (Glaxo Group Limited, priority 2009, dated 2014):

Tests used:
Assay type in all cases: biochemical
[1] = target: T1, 6His-Tev-LRRK2 (1326-2527) (Homo sapiens, UniProt Q5S007); test: LRRK2 peptide substrate assay; conditions: Biotin-LRRKtide peptide substrate, ATP at Km; read-out: pIC50 in the LRRK2 peptide substrate assay (converted)
T1 construct: A LRRK2 cDNA encoding residues 1326-2527 was received from Dundee University; made in house; host or cells: Spodoptera frugiperda (Sf9) insect cells, baculovirus
T1 sequence (Q5S007 1326-2527): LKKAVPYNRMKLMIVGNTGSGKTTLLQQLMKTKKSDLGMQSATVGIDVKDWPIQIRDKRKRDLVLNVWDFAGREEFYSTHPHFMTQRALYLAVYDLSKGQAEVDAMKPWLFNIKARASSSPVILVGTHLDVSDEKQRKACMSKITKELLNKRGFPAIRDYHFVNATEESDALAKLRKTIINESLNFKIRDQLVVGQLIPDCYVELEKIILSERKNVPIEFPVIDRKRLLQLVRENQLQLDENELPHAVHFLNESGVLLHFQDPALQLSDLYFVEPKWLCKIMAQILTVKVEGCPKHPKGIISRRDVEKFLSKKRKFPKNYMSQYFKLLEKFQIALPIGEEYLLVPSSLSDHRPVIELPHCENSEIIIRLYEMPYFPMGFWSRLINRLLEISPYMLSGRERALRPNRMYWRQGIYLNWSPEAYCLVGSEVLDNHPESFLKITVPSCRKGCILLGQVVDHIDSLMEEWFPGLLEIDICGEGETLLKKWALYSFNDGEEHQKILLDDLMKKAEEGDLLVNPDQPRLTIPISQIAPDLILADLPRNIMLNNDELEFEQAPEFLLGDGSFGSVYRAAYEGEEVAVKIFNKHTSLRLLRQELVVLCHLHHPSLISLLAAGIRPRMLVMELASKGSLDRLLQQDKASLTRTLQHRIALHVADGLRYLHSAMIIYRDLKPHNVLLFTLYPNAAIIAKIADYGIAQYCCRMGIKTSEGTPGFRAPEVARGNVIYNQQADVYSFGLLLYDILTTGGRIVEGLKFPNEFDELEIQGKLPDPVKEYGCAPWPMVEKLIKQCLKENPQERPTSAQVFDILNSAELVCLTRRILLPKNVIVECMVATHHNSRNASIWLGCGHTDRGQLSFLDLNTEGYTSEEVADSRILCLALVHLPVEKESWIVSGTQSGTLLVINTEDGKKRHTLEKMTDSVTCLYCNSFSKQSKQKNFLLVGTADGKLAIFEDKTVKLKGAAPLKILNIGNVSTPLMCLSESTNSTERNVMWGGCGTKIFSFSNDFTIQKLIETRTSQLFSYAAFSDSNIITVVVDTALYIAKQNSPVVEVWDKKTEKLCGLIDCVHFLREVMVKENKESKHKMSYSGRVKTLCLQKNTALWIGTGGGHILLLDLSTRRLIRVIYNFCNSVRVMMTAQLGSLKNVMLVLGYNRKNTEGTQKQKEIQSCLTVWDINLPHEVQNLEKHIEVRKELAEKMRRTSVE
How it was run: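 Recombinant 6His-Tev-LRRK2 (1326-2527), 80 nM in enzyme solution, in pH 7.2 Hepes/MgCl2 buffer with DTT; compounds in 1:4 serial dilution from 30 μM top final. Reaction 1-2 h at room temperature, stopped with EDTA; phospho-moesin (Thr558) antibody with Eu/APC TR-FRET detection after 2 h (ex 330, em 620/665 nm).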

[2] = target: T1, 6His-Tev-LRRK2 (1326-2527); test: LRRK2 AlphaScreen desensitised protein substrate assay; conditions: excess of ATP present (2 mM ATP); read-out: pIC50 in the LRRK2 alphascreen desensitised protein substrate assay (converted)
How it was run: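 Purified 6His-Tev-LRRK2 (1326-2527), 80 nM in enzyme solution, in pH 7.2 Hepes buffer with MgCl2 and DTT; compound 1:4 dilutions, top final 30 μM. ATP 2 mM in substrate solution, 20 min at room temperature. Phospho-ERM (Thr567/564/558) detected by AlphaScreen.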

[3] = target: T1, 6His-Tev-LRRK2 (1326-2527); test: LRRK2 AlphaScreen protein substrate assay; conditions: GST-PS-Moesin (400-577) substrate, ATP at Km; read-out: pIC50 in the LRRK2 alphascreen protein substrate assay (converted)
Description: a) 100 nl of a 1:4 serial dilution of test compound with a top final assay concentration of 30 μM is added to certain wells in a low volume 384 well black plate. 100 nl of DMSO is used in certain wells as controls.
b) 3 μl enzyme solution (80 nM purified recombinant 6His-Tev-LRRK2 (1326-2527) in assay buffer: 50 mM Hepes (pH 7.2), 10 mM MgCl2, 150 mM NaCl, 5% glycerol, 0.0025% triton X-100 and 1 mM DTT) is added to certain wells.
Plates are then incubated for a further 1-2 hours at room temperature (incubation time varies depending upon rate and linearity of reaction with differing enzyme batches).
d) 6 μl detection solution (1:250 dilution of AlphaLisa Protein A Acceptor beads (PerkinElmer), 1:64 dilution of AlphaLisa Gluthathione Donor beads (PerkinElmer) and 1:600 dilution (dilution determined on a batch to batch basis) of Phospho-Ezrin (Thr567)/Radixin (Thr564)/Moesin (Thr558) Polyclonal Antibody (New England Biolabs) in a buffer: 50 mM Hepes (pH 7.5), 250 mM NaCl, 60 mM EDTA, 1% PEG and 0.01% Brij 35) is added to each well. Plates are then incubated for a further 2 hours at room temperature in the dark before reading on an EnVision™ plate reader with AlphaScreen HTS turbo option module and AlphaScreen settings. Data is analysed using ActivityBase software (IDBS).

| IC50 [1] [nM] | IC50 [3] [nM] | SMILES | IC50 [2] [nM] |
| --- | --- | --- | --- |
| ≤ 100 | ≤ 100 | N#Cc1cccc(COc2ccc(Br)cc2C(=O)Nc2cccnc2)c1 [Example 15, 5-Bromo-2-{[(3-cyanophenyl)methyl]oxy}-N-3-pyridinylbenzamide] | > 25100 |
| ≤ 100 | ≤ 100 | CN(C)CCOc1ccc(OCc2ccccc2)c(C(=O)Nc2cccnc2)c1 [Example 30, 5-{[2-(Dimethylamino)ethyl]oxy}-2-[(phenylmethyl)oxy]-N-3-pyridinylbenzamide] | ≤ 20000 |
| ≤ 100 | ≤ 100 | O=C(Nc1cccnc1)c1cc(Br)ccc1OCc1ccc(Cl)cc1 [Example 9, 5-Bromo-2-{[(4-chlorophenyl)methyl]oxy}-N-3-pyridinylbenzamide] | ≤ 20000 |
| ≤ 100 | ≤ 100 | O=C(Nc1cccnc1)c1cc(Br)ccc1OCc1cccc(Cl)c1 [Example 13, 5-Bromo-2-{[(3-chlorophenyl)methyl]oxy}-N-3-pyridinylbenzamide] | > 25100 |
| ≤ 100 | ≤ 100 | O=C(Nc1cccnc1)c1cc(N2CCCCC2)ccc1OCc1ccccc1 [Example 33, 2-[(Phenylmethyl)oxy]-5-(1-piperidinyl)-N-3-pyridinylbenzamide] | ≤ 20000 |
| ≤ 100 | ≤ 100 | CC(C)c1ccc(OCc2ccccc2)c(C(=O)Nc2cccnc2)c1 [Example 1, 5-(1-Methylethyl)-2-[(phenylmethyl)oxy]-N-3-pyridinylbenzamide] | ≤ 20000 |
| ≤ 100 | ≤ 100 | O=C(Nc1cccnc1)c1cc(Br)ccc1OCc1ccccc1 [Example 2, 5-Bromo-2-[(phenylmethyl)oxy]-N-3-Pyridinylbenzamide] | ≤ 20000 |
| ≤ 10 | ≤ 100 | CN1CCN(c2ccc(OCc3ccccc3)c(C(=O)Nc3cccnc3)c2)CC1 [Example 32, 5-(4-Methyl-1-piperazinyl)-2-[(phenylmethyl)oxy]-N-3-pyridinylbenzamide] | ≤ 20000 |
